This passage reports IC50 and inhibition results from PMC5785997, “2-Phenylquinazolinones as dual-activity tankyrase-kinase inhibitors” (Scientific Reports, 2018).

Experiment [1] addresses TNKS2 (Homo sapiens, UniProt Q9H2K2). The experiment can be described thus: NAD+ quantification activity assay, TNKS2. The experiment is classed as biochemical. The conditions noted are these: TNKS2 IC50, NAD+ 500 nM.
For experiment [2], the target named is ARTD5/TNKS1 (Homo sapiens, UniProt O95271). In words: NAD+ quantification activity assay, TNKS1. The experiment is classed as biochemical. Particulars: NAD+ 500 nM. As for the experimental part: (§1) Protein (nM) NAD+ (nM) Incubation Buffer
ARTD5/TNKS1, sequence (O95271 1112-1317): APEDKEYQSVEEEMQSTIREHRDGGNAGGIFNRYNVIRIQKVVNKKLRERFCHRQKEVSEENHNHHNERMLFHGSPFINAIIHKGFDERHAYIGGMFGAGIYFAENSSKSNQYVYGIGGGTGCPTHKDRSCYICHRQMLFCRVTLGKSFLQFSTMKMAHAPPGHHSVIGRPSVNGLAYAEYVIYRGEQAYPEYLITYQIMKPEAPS
(§2) Kinase [ATP] Substrate Incubation Reaction buffer

Experiment [3] deals with Wnt/β-catenin signaling (TCF/LEF Reporter HEK293 Cell Line). The experiment can be described thus: Wnt signaling TCF/LEF reporter assay in HEK293 cells. The conditions noted are these: Homo sapiens. The format is cell-based, human. Here is the method:
The Wnt assay was performed using a procedure modified from the BPS Bioscience protocol. Details are given in the Supplementary Methods. […]
The Wnt Signaling Pathway TCF/LEF Reporter HEK293 Cell Line (BPS Bioscience, catalog […]
Reporter HEK293 cells were grown at 37 °C with 5% CO2 using Dulbecco's Modified Eagle's Medium (DMEM, Sigma), supplemented with 10% of fetal bovine serum (Lonza), 1% non-essential amino acid (Sigma), 1X of penicillin and streptomycin (Sigma), and 400 µg/ml of Geneticin (Roche). Wnt-3a and L cells (ATCC) were cultured in Dulbecco’s modified Eagle’s medium supplemented with 10% fetal bovine serum, penicillin and streptomycin at 37 °C in a 5%
CO2. Wnt3a and control conditioned medium preparation has been described previously1. The Wnt assay was performed using a procedure modified from the BPS Bioscience protocol. 30,000 HEK293 cells/well in 40 µl of serum-free DMEM were plated on 96-well plate (white wells, clear […]
bottom, PerkinElmer). 10 µl of 50 mM LiCl in serum-free DMEM with 5x concentration of DMSO or tankyrase inhibitors was added. After 16 hours of incubation, 25 µl of Wnt3a or control conditioned medium supplemented with DMSO or tankyrase inhibitors was added on cells and cells were incubated for additional 24 hours. After the second incubation, the 96-well plates were balanced in room temperature for 30 minutes. Wnt3a induced luciferase activity was determined using ONE-Glo Luciferase Assay System (Promega) according to manufacturer’s protocol. […]
Difference Fourier method deriving the starting phases from 3U9H. The refinement of the structures was done with REFMAC5.5,6 Final manual building, analysis and visualization of the structures were made with Coot7 and PyMOL (www.pymol.org). All chemical structures were drawn with Marvin (Marvin 5.7.0 2011, ChemAxon, http://www.chemaxon.com). The docking studies were performed using GOLD software.8

On the set-up of experiment [4]: method as in PMID 24130191. The conditions noted are these: previous study; read-out: IC50 in cell-based assay; cited from earlier work.
The target in experiment [5] is ARTD1/PARP1 (Homo sapiens, UniProt P09874). The experiment can be described thus: ARTD profiling, ARTD1.
ARTD1/PARP1, sequence (P09874 whole entry): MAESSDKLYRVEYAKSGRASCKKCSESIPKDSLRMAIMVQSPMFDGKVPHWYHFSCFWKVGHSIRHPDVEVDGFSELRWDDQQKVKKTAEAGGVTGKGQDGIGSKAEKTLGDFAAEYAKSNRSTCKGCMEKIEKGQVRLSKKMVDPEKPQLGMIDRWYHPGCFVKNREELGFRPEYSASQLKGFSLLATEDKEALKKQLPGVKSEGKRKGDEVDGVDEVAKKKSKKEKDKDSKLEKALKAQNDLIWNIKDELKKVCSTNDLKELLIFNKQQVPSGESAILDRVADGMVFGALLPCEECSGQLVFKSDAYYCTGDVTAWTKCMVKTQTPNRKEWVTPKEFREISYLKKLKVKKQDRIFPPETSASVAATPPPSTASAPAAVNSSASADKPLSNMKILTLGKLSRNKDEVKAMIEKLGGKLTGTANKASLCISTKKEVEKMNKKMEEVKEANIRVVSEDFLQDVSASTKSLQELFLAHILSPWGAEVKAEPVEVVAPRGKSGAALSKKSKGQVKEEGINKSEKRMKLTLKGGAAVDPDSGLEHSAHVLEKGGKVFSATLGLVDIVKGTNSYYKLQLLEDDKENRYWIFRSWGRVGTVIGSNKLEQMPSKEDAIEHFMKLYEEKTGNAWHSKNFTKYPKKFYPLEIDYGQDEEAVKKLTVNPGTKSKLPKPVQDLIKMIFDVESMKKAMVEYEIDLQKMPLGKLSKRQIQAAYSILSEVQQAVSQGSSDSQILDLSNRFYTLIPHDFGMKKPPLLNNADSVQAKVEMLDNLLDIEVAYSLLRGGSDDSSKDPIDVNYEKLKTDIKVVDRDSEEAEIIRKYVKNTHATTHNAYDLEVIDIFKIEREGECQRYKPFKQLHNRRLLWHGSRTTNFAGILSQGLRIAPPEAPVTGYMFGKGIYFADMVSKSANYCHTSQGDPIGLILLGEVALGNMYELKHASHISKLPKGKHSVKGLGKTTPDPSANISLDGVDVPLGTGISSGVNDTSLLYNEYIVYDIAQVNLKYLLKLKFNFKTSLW
The target in experiment [6] is ARTD2/PARP2 (Homo sapiens, UniProt Q9UGN5). The experiment can be described thus: ARTD profiling, ARTD2.
ARTD2/PARP2, sequence (Q9UGN5 whole entry): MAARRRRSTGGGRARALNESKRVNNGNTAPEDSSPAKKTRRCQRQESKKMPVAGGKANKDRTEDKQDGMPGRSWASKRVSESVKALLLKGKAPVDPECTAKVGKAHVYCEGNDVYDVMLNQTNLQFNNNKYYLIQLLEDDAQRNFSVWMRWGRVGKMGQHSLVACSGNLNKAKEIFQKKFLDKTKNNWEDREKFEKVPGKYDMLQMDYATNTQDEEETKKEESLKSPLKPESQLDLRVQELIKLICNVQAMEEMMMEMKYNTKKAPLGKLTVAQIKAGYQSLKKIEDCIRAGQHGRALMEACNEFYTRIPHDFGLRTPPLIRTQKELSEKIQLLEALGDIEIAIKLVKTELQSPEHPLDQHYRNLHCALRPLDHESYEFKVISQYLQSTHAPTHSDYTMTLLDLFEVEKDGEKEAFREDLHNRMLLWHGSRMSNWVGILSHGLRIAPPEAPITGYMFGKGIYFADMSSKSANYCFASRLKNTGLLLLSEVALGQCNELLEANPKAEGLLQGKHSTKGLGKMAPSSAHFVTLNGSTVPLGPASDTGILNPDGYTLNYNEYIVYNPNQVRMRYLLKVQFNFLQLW
For experiment [7], the target named is T1, ARTD3/PARP3 (Homo sapiens, UniProt Q9Y6F1).
T1 sequence (Q9Y6F1 1-533): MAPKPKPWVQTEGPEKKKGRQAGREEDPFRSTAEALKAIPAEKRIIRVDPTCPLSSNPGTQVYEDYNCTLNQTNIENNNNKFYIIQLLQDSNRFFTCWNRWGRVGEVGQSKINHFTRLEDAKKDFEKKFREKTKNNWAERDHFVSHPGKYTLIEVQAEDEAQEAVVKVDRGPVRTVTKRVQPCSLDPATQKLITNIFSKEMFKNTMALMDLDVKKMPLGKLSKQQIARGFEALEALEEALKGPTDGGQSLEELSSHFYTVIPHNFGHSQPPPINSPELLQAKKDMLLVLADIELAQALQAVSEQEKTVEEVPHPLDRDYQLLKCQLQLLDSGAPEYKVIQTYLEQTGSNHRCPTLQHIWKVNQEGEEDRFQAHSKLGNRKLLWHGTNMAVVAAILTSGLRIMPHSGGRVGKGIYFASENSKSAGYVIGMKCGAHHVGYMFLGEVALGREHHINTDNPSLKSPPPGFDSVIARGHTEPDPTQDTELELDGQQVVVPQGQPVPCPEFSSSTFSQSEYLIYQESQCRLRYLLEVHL
The experiment can be described thus: ARTD profiling, ARTD3. The conditions noted are these: NAD+ 500 nM. The format is biochemical. As for the experimental part:
as §1, §2

The target of experiment [8] is T2, ARTD4/PARP4 (Homo sapiens, UniProt Q9UKK3).
T2 sequence (Q9UKK3 369-573 limits assumed): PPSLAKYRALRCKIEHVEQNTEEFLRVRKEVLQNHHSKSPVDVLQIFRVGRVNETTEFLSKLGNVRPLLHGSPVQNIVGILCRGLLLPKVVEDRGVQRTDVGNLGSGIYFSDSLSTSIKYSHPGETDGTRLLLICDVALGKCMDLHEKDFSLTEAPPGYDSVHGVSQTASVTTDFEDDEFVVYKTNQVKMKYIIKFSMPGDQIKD
In words: ARTD profiling, ARTD4.

Experiment [9] addresses T3, ARTD7/PARP15 (Homo sapiens, UniProt Q460N3).
T3 sequence (Q460N3 482-678 limits assumed): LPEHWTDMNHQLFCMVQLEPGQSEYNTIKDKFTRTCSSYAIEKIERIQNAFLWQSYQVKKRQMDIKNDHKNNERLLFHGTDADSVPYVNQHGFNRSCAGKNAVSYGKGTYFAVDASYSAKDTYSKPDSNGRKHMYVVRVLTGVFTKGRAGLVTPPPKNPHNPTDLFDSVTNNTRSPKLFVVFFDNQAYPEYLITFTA
In words: ARTD profiling, ARTD7.

Experiment [10] deals with ARTD8/PARP14 (Homo sapiens, UniProt Q460N5). The experiment can be described thus: ARTD profiling, ARTD8.
ARTD8/PARP14, sequence (Q460N5 whole entry): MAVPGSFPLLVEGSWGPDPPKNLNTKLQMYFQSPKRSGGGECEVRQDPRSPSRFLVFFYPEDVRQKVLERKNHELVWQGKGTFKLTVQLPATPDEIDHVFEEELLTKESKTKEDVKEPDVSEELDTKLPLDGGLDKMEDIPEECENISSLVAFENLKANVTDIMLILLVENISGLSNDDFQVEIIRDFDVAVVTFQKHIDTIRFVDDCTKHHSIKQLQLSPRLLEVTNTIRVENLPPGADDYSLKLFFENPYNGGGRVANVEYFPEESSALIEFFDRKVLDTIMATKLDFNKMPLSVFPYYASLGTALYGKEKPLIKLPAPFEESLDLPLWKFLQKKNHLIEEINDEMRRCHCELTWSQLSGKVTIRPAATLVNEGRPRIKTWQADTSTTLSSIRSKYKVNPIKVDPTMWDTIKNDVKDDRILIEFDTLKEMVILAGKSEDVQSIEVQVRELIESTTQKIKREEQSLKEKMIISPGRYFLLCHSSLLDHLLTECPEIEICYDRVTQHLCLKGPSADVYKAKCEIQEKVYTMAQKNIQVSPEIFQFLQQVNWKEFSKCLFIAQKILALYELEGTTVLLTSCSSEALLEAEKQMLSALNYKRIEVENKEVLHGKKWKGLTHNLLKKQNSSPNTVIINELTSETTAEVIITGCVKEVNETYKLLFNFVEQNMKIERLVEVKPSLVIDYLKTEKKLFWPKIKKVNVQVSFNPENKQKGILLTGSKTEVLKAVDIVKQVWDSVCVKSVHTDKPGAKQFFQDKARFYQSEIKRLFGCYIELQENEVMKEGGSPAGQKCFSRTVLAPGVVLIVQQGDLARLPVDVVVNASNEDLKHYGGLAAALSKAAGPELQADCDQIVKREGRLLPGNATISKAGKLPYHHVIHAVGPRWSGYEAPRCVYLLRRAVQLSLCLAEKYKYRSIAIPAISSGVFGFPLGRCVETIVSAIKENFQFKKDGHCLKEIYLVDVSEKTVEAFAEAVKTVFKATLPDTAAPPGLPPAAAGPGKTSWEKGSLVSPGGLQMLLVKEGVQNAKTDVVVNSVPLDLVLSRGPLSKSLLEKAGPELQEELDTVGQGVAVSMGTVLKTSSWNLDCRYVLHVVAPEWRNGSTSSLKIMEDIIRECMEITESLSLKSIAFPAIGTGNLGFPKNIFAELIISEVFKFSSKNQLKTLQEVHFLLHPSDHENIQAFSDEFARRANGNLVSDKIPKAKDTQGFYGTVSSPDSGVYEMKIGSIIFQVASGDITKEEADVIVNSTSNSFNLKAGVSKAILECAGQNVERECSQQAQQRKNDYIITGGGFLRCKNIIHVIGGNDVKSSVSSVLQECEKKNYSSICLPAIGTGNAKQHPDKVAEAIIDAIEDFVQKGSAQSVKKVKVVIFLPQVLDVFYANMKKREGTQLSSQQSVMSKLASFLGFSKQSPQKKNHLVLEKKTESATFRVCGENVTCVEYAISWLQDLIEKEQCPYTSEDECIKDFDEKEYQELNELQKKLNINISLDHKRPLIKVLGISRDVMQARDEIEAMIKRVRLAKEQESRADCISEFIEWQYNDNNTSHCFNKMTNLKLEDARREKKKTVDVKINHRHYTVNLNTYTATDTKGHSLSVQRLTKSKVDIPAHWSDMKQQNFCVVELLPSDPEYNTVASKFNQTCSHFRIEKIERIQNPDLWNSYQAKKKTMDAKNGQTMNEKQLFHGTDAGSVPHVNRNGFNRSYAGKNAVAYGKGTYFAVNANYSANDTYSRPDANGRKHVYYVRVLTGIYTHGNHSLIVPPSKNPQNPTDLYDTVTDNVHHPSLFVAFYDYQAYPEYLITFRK
For experiment [11], the target named is T4, ARTD10/PARP10 (Homo sapiens, UniProt Q53GL7).
T4 sequence (Q53GL7 806-1025 limits assumed): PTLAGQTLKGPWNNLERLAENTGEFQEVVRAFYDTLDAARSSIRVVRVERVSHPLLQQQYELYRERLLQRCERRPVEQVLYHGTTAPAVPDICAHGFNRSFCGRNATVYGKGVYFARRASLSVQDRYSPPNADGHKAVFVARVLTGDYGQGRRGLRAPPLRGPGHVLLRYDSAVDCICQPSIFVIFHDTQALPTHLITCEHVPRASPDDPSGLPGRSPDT
The experiment can be described thus: ARTD profiling, ARTD10.

The target of experiment [12] is T5, ARTD12/PARP12 (Homo sapiens, UniProt Q9H0J9).
T5 sequence (Q9H0J9 484-698 limits assumed): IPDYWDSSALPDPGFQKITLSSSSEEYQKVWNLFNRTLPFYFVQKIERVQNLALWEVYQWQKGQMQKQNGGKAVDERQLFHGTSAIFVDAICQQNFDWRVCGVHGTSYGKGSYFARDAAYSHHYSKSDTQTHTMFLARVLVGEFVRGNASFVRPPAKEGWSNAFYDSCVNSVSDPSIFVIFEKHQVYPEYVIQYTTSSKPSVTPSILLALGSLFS
In words: ARTD profiling, ARTD12.

For experiment [13], the target named is T6, ARTD15/PARP16 (Homo sapiens, UniProt Q8N5Y8).
T6 sequence (Q8N5Y8 1-322): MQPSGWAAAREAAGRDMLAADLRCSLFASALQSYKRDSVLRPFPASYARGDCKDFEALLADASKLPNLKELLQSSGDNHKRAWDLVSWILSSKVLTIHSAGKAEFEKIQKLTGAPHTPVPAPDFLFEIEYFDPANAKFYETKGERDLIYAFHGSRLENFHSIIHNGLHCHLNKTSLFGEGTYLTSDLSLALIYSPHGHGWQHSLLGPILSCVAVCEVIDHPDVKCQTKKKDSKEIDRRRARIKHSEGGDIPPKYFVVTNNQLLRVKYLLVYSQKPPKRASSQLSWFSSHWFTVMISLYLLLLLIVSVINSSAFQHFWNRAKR
The experiment can be described thus: ARTD profiling, ARTD15.

TNKS2, sequence (Q9H2K2 959-1164): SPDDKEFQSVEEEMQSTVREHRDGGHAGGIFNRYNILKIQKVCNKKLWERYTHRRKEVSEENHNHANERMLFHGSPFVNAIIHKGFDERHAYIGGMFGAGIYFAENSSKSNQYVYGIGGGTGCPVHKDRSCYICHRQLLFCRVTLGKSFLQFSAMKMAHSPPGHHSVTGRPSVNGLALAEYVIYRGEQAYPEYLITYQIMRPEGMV

Take `CC1(c2ccc(-c3nc4ccccc4c(=O)[nH]3)cc2)NC(=O)NC1=O` (stereo not drawn) [Compound 2]: the IC50 in experiment [1] was 3.3 nM; in experiment [2], 5.9 nM; in [4], around 1000 nM; in experiment [5] it was 374 nM; in experiment [6] it was 340 nM. Moreover, the inhibition at 2 µM in experiment [3] (HEK293, 2 µM compound, Wnt-reporter cell assay, read-out: Wnt (Inh.%, 2 µM)) worked out at 68%.

With `CN(CCO)c1ccc(-c2nc3ccccc3c(=O)[nH]2)cc1` [Compound 33], the IC50 is 16 nM in experiment [1]; 77 nM in experiment [2]; 3800 nM in experiment [7]; 1700 nM in experiment [5]; 860 nM in [6]; 2000 nM in experiment [8]. Besides, the IC50 in experiment [9] is above 10000 nM; in experiment [10], 3200 nM; in experiment [11], 3100 nM; in experiment [12], above 10000 nM; in [13], above 10000 nM. This compound also had an inhibition at 1 µM in experiment [3] (HEK293, 1 µM compound, TCF/LEF reporter HEK293) of 20%.

One may read the IC50 as the concentration at which inhibition is half-maximal.
